Values joined by “and” are separate entries in the source; they are usually repeats but may differ in a detail not shown here. Equal values may be shown once.
System: P. falciparum 3D7 growth, pLDH absorbance
Assay: blood-stage malaria parasite growth potency – strain 3D7, dose response (AID 2305)

## COc1ccc2nccc([C@@H](O)CN3CCC(NCCOc4ccccc4C(F)(F)F)CC3)c2c1
  IC50: 750 nM

## CCOc1ccc(OCC(=O)Nc2nc(-c3ccc(OC)cc3)c(C)s2)cc1
  IC50: 220 nM

## Clc1ccc(-c2ccc(C=NNc3nc(Nc4ccccc4)nc(Nc4ccccc4)n3)o2)cc1Cl
  IC50: 740 nM

## COc1ccc(NC(=O)c2ccc(-c3nc(-c4ccccc4)cs3)cc2)cc1N1CCN(C)CC1
  IC50: 990 nM

## CC(C)Cn1cc(C2CCN(CCN3CCC(CNC(=O)c4ccc(-c5ccc(C(F)(F)F)cc5)cc4)CC3)CC2)c2ccccc21
  IC50: 750 nM

## C=Cc1sc(CNCCCNc2cc(=O)c3ccccc3[nH]2)c(C)c1Br
  IC50: 1050 nM

## COc1ccc(Nc2ncc3c(-c4cccc(NC(=O)Cc5cccnc5)c4)c[nH]c3n2)cc1OC
  IC50: 720 nM

## C=CCC(C)n1ncc2c3c(N)nc(N)nc3ccc21 (centres undefined)
  IC50: 50 nM

## OC(CNC1CCCCC1)Cn1c2ccc(Br)cc2c2cc(Br)ccc21 (centres undefined)
  IC50: 300 nM

## Fc1cccc(C=NNc2ccnc3cc(Cl)ccc23)c1
  IC50: 530 nM

## CN(C)c1cccc(NC(=O)NC2N=C(c3ccccc3)c3ccccc3N(CC(=O)N(C)c3ccccc3)C2=O)c1 (centres undefined)
  IC50: 950 nM

## Cc1ccc(F)cc1S(=O)(=O)Nc1cccc(CCN2CCC(N3CCCCC3)CC2)c1
  IC50: 1120 nM

## CC(C)c1ccc(-c2nc3ncc(Cl)cc3[nH]2)cc1
  IC50: 860 nM

## Cc1cnc(C(=O)Nc2cccc(-c3cccc(-c4nc5c(C)cccc5[nH]4)c3)c2)cn1
  IC50: 580 nM

## O=S(=O)(c1ccccc1)C1CC1
  IC50: 720 nM

## NC(=O)C1CCN(Cc2ccc(-c3ccc(-c4nc5ccc(C(F)(F)F)cc5[nH]4)s3)cc2)CC1
  IC50: 540 nM

## CCCN(CC1CC1)c1ncc(-c2ccccc2CNCc2ccccc2O)cn1
  IC50: 500 nM

## Oc1ccc(-c2cc(-c3ccc(O)cc3)nc(-c3ccccc3)n2)cc1
  IC50: 780 nM

## COc1ccc(CN2CCN(C(=O)c3cccs3)CC2)c(O)c1
  IC50: 840 nM

## Cc1cc(NS(=O)(=O)c2cccc(C(C)N3CCC(N4CCCC4)CC3)c2)ccc1C(C)C (centres undefined)
  IC50: 820 nM

## O=C(/C=C/c1ccc(Cl)c(Cl)c1)NCCCCCN1CCC(c2c[nH]c3ccccc23)CC1
  IC50: 780 nM

## COc1ccc(NC(=O)/C=C/c2ccccc2Cl)cc1OCCN1CCN(c2ccncc2)CC1
  IC50: 730 nM

## CN1CCN(CC(=O)Nc2ccc(-c3ccc(-c4nc5ccccc5[nH]4)s3)cc2)CC1
  IC50: 300 nM

## O=C(C=Cc1ccc(-c2ccccc2)cc1)NC1CCC(CN2CCC(c3c[nH]c4ccccc34)CC2)CC1 (centres undefined)
  IC50: 810 nM and 740 nM

## CCCCCC(C)C(C)c1cc(O)c2c(c1)OC(C)(C)c1cnccc1-2 (centres undefined)
  IC50: 770 nM

## Oc1ccc2[nH]cc(C3=CCN(Cc4ccccc4)CC3)c2c1
  IC50: 980 nM

## c1cc(-c2ccc(CN3CCCCC3)cc2)cc(-c2nc3ccccc3[nH]2)c1
  IC50: 580 nM

## Cc1ccnc(-n2c(C)cc(C=C3SC(=Nc4ccccc4)N(Cc4ccco4)C3=O)c2C)c1
  IC50: 240 nM

## COc1cc2nc(NCCC(C)C)n3nc(-c4ccccc4)nc3c2cc1OC
  IC50: 420 nM

## N#Cc1ccc(N2CCN(Cc3ccc(-c4ccc(-c5nc6ccc(F)cc6[nH]5)s4)cc3)CC2)nc1
  IC50: 850 nM

## CCCCCCOc1ccc2ccccc2c1CNCCCCCCNCc1c(OCCCCCC)ccc2ccccc12
  IC50: 1060 nM

## Cc1cc(N[C@@H](CC(C)C)C(=O)NCc2cccs2)nc(Nc2ccccc2)n1
  IC50: 1130 nM

## CCn1ccc2c(N3CCCCS3(=O)=O)cc(C(=O)N[C@@H](Cc3ccccc3)[C@H](O)CNC(C)(C)c3cccc(C(F)(F)F)c3)cc21
  IC50: 130 nM

## Cc1cc(NN=Cc2ccccc2)c2cc(F)ccc2n1
  IC50: 580 nM

## NC1=NC2(CCCCC2)N(OCCOc2ccc(Cc3ccccc3)cc2)C(N)=N1
  IC50: 1130 nM

## OC1(c2ccc(Br)cc2)CCN(C2CCN(Cc3ccccc3)CC2)CC1
  IC50: 600 nM

## O=C(Nc1ccc(F)cc1)NC1CCN(c2ccnc3ccccc23)C1 (centres undefined)
  IC50: 870 nM

## CCN(CC)c1ccc(C(c2ccc(N(CC)CC)cc2)c2ccc([N+](=O)[O-])cc2)cc1
  IC50: 950 nM

## CCOC(=O)c1ccc(NC(=O)Nc2cccc(-c3cccc(-c4nc5ccc(F)cc5[nH]4)c3)c2)cc1
  IC50: 90 nM

## O=c1cc(NCCCNCc2cccc(I)c2)[nH]c2ccccc12
  IC50: 1020 nM

## CCCCCCCc1[nH]c2ccccc2c(=O)c1C
  IC50: 510 nM

## O=C(C=Cc1ccc(Cl)c(Cl)c1)NCCCCCN1CCC(CCNS(=O)(=O)c2ccc(Br)cc2)CC1
  IC50: 1120 nM

## Clc1ccc2c(NCCc3ccccc3)ccnc2c1
  IC50: 490 nM

## O=C(COC(=O)c1cccc(S(=O)(=O)N2CCc3ccccc32)c1)NNC(=O)c1cccs1
  IC50: 1250 nM

## COc1ccc(CNCc2cccc(-c3cccc(-c4nc5ccccc5[nH]4)c3)c2)cc1
  IC50: 370 nM

## COc1cc2c(cc1C(F)(F)F)N(C(=O)Nc1cccc(-c3ccc(CN(C)C)cc3)c1)CC2
  IC50: 710 nM

## CCCC(N)C(=O)NC1CCN(c2c(F)c(N)c3c(=O)c(C(=O)O)cn4c3c2Oc2ccccc2-4)C1 (centres undefined)
  IC50: 360 nM

## Cc1nc(-c2nc(N3CCC(O)CC3)ncc2-c2ccsc2)sc1C
  IC50: 940 nM

## CCCCCCC(C)c1cc(O)c2c(c1)OC(=O)CC2(CC)c1ccccn1 (centres undefined)
  IC50: 330 nM

## COc1ccc(C=NNc2nc(-c3ccccc3)cc(=O)[nH]2)cc1OC
  IC50: 590 nM

## CCCc1cc(Cc2cnc(N)nc2N)cc(CCC)c1O
  IC50: 280 nM

## Oc1ccc(CCNc2nc(NCCCOc3cc(CN4CCCCC4)ccc3F)nc(N3CCNCC3)n2)cc1
  IC50: 1760 nM

## CN(C)C(CNc1ncnc2cc(Cl)ccc12)Cc1ccccc1 (centres undefined)
  IC50: 870 nM

## Cc1ccc(O)cc1Nc1ccnc2cc(-c3ccc(CN4CCCCC4)o3)ccc12
  IC50: 170 nM

## O=C(/C=C/c1ccc(Cl)c(Cl)c1)NCCCCCCN1CCCN(C(=O)Nc2ccc(Cl)c(C(F)(F)F)c2)CC1
  IC50: 560 nM

## C=CCc1ccc(C2CCN(CCCCNC(=O)c3ccc(NC(=O)c4ccc(Cl)cc4)cc3)CC2)cc1
  IC50: 1120 nM

## c1ccc2c(C3CCN(CCCCOc4ccc5c(c4)CCN(C4CCC4)CC5)CC3)c[nH]c2c1
  IC50: 710 nM

## CS(=O)(=O)CCNC(=O)c1ccc(-c2cc3c(Nc4ccc5c(cnn5Cc5ccccc5)c4)ncnc3cn2)o1
  IC50: 1000 nM

## CCOC(=O)c1nc2ccc(SC3CCCCC3)cn2c1Br
  IC50: 1060 nM

## COc1ccccc1N1CCN(c2cccc(F)c2C#N)CC1
  IC50: 960 nM

## COc1ccccc1C1CCN(CCN2CCC(NC(=O)c3ccc(-c4ccc(C#N)cc4)cc3)CC2)CC1
  IC50: 790 nM

## Cc1cc2nc(-c3ccc(/C=C/C(=O)NC4CCN(Cc5ccccc5)CC4)cc3)[nH]c2cc1C
  IC50: 590 nM

## OCCNc1nc(Nc2ccc(Cl)cc2)nc2ccccc12
  IC50: 710 nM

## OCCN1CCN(c2ccc(Nc3ccnc4cc5ccccc5cc34)cc2)CC1
  IC50: 40 nM

## CN1CCN(CCCN(Cc2cccc(-c3ccc(CNCCc4ccccc4)cc3)c2)C(=O)c2cccs2)CC1
  IC50: 720 nM

## Cc1ccc(-c2cc3nc4c(c(NCCCn5ccnc5)n3n2)CCC4)cc1
  IC50: 920 nM

## O=C(NCCN1CCCCC1)N1CCCN(c2ncnc3cc(-c4ccccc4)sc23)CC1
  IC50: 230 nM

## CN(C(=O)Nc1ccc(F)cc1)C1CCN(CCCCCNC(=O)/C=C/c2ccc(Cl)c(Cl)c2)CC1
  IC50: 890 nM

## CCCN(CCCCNC(=O)c1ccc(-c2cccnc2)cc1)C1CCc2c(O)cccc2C1 (centres undefined)
  IC50: 1120 nM

## CN(Cc1ccc(-c2ccc(C(F)(F)F)cc2)cc1)C(=O)Cn1c(CCc2cccc(F)c2F)cc(=O)c2ccc(OCCCN3CCCCC3)cc21
  IC50: 710 nM

## CC(=O)N(C)C1CCN(Cc2ccc(-c3ccc(-c4nc5ccc(F)cc5[nH]4)s3)cc2)C1 (centres undefined)
  IC50: 970 nM

## COCCN1CCC(N(CC2(O)CCN(c3ccc(C(F)(F)F)cc3)CC2)C(=O)Cn2c(SCc3cccc(F)c3F)cc(=O)c3ccccc32)CC1
  IC50: 810 nM

## COCc1cc(C)nc2sc(C(=O)Nc3cc(C(C)(C)C)ccc3O)c(N)c12
  IC50: 710 nM

## O=C(NCCc1ccccc1F)c1cc(Br)cc(N2CCN(c3ccncc3)CC2)c1
  IC50: 760 nM

## FC(F)(F)c1cccc2c(NN=Cc3ccccc3)ccnc12
  IC50: 620 nM

## CCN(CC)c1nc(N)c2c(N)nc3c(c2c1C#N)C(=O)CN3Cc1ccccc1
  IC50: 70 nM

## CCSc1nc2sc3c(c2c(=O)n1-c1ccccc1)CCN(C)C3
  IC50: 460 nM

## COc1ccc(CCNc2nc(N)c3cc(OC)c(OC)cc3n2)cc1
  IC50: 1120 nM

## COc1ccc2nccc([C@@H](O)CN3CCC(NC(=O)/C=C/c4ccnc5ccccc45)CC3)c2c1
  IC50: 940 nM

## C=Cc1cc(OC)c2c(c1)c(=O)oc1c2cc(OC)c2c(O)ccc([C@H]3O[C@H]([C@@H](C)O)[C@H](O)[C@H]3O)c21
  IC50: 790 nM

## Cn1c(/C=C/C(=O)NC2CCC(CCN3CCc4ccc(C#N)cc4CC3)CC2)cc2ccccc21 (centres undefined)
  IC50: 730 nM

## COc1ccc(-c2cccc(NC(=O)c3ccc(C#N)cc3)c2)cc1CN1CCCN(C)CC1
  IC50: 760 nM

## Cc1cc(-c2c[nH]c3ncc(-c4cccc5ncccc45)cc23)ccc1C(=O)O
  IC50: 760 nM

## CCOCCCNc1ncc(-c2ccsc2)c(-c2nc(C)cs2)n1
  IC50: 270 nM

## COc1ccc(Nc2nc(NN=Cc3cc(Br)ccc3O)nc(Nc3ccc([N+](=O)[O-])cc3)n2)cc1
  IC50: 220 nM

## COc1ccc(C=NNc2cc(C)nc3ccccc23)c2ccccc12
  IC50: 750 nM

## Cc1cccc2c(/C=C/C(=O)NC3CCC(CCN4CCc5ccc(C#N)cc5CC4)CC3)c[nH]c12 (centres undefined)
  IC50: 1220 nM

## CC1(C)N=C(N)N=C(N)N1OCc1cc(Cl)c(Cl)cc1CON1C(N)=NC(N)=NC1(C)C
  IC50: 10 nM

## O=C(Nc1ccc(-c2nc3ccccc3[nH]2)cc1)c1cnc(Cl)c(Cl)c1
  IC50: 730 nM

## COCCCNc1nc2cc(OC)c(OC)cc2c2nc(-c3ccccc3)nn12
  IC50: 190 nM

## c1ccc(COc2ccc(COc3ccc(Cn4ccnc4)cc3)cc2)cc1
  IC50: 950 nM

## NC1=NC(c2ccccc2)(c2ccccc2)C(=O)N1Cc1ccc(-c2ccncc2)cc1
  IC50: 770 nM

## Cn1c(Nc2nnc(C3CC3)s2)nc2cc(Nc3ccnc(Nc4cccc(CS(C)(=O)=O)c4)n3)ccc21
  IC50: 680 nM

## CCCCCCC(CC)c1cc(O)c2c(c1)OC(C)(C)c1ccncc1-2 (centres undefined)
  IC50: 810 nM

## C[C@@H]1CN(c2cnn(Cc3ccc(NC(=O)Nc4cccc(C(F)(F)F)c4)cc3)c(=O)c2Cl)C[C@H](C)N1
  IC50: 940 nM

## COc1ccc(CNC(=O)c2cnc3c(O)cccc3c2Nc2cccc(NC(=O)c3ccc(Cl)c([N+](=O)[O-])c3)c2)cc1
  IC50: 950 nM

## Cc1cc(N[C@@H](CC(C)C)C(=O)Nc2ccccc2)nc(NCCc2ccc(F)cc2)n1
  IC50: 1090 nM

## COc1ccc(C(=O)Nc2ccc3oc(-c4ccc(C(F)(F)F)cc4)cc3c2)cc1CCCN(C)C
  IC50: 700 nM

## CC1(C)CN2CCCC2c2cc(NC(=O)/C=C/c3ccccc3Cl)ccc21 (centres undefined)
  IC50: 990 nM

— PubChem BioAssay AID2305 (GlaxoSmithKline (GSK), 2010)
